Broadly, the IC50 is the concentration at which inhibition is half-maximal.

These results are taken from US10058534B2, “Benzothiophene derivatives and compositions thereof as selective estrogen receptor degraders” (NOVARTIS AG, priority 2013, dated 2018).

Each structure is given as a SMILES string.

The assay addresses ERα (Homo sapiens (Human), UniProt P03372). The assay is described as follows: ERα degradation (MCF7 cells), in-cell Western. Format: cell-based. The conditions noted are these: MCF7 cells; for % ERα remaining: remaining ERα protein at 10 μM ligand, relative to DMSO control. On the procedure:
ERα Degradation (MCF7 Cells)
The column titled MCF7 IC50 reports the inflection point of the inhibition of transcription in MCF7 cells as described above. Percentage ERα remaining reports the remaining ERα protein measured at 10 μM concentration of the ligand as described above. The column ERα IC50 reports the inflection point of the degradation in response to the ligand concentration.

[1] abbreviates: inflection point of the degradation in response to ligand concentration.

Chain of ERα (P03372 whole entry): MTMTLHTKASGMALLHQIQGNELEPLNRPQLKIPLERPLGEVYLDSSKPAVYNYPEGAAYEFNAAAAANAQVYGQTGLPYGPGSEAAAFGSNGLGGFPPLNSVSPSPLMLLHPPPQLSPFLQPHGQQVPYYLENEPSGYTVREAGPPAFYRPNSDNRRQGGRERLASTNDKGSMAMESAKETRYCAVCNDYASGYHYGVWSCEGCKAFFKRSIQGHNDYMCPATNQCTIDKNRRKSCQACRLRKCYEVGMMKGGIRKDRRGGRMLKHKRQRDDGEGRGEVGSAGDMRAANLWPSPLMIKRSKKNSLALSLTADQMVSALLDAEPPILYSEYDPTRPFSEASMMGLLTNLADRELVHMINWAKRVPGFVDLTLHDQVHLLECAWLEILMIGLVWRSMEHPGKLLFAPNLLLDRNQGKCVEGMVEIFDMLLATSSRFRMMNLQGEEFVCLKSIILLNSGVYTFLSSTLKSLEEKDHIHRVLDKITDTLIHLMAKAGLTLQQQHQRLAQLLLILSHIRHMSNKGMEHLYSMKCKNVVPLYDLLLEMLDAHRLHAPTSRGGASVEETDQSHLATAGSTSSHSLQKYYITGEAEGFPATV

In the case of `Cc1c(O)cccc1-c1sc2cc(O)ccc2c1Oc1ccc(/C=C/C(=O)O)cc1` [Example 16, (E)-3-(4-((6-hydroxy-2-(3-hydroxy-2-methyl-phenyl)benzo[b]thiophen-3-yl)oxy)phenyl)-acrylic acid], the “% ERα remaining” value was 26%. The compound also came in with an IC50 under setting [1] of 6 nM.

For the compound `CCc1ccccc1-c1sc2cc(O)ccc2c1Oc1ccc(/C=C/C(=O)O)cc1` [Example 18, (E)-3-(4-((2-(2-ethylphenyl)-6-hydroxybenzo[b]thiophen-3-yl)oxy)phenyl)-acrylic acid], the “% ERα remaining” value is given as 23%. The IC50 under setting [1] stood at 1 nM.

Regarding `CC(=O)c1ccccc1-c1sc2cc(O)ccc2c1Oc1ccc(/C=C/C(=O)O)cc1` [Example 19, (E)-3-(4-((2-(2-acetylphenyl)-6-hydroxybenzo[b]thiophen-3-yl)oxy)phenyl)-acrylic acid], the “% ERα remaining” value came to 19%. This compound also gave an IC50 under setting [1] of 7 nM.

Turning to `CC(C)(C)c1ccccc1-c1sc2cc(O)ccc2c1Oc1ccc(/C=C/C(=O)O)cc1` [Example 20, (E)-3-(4-((2-(2-(tert-butyl)phenyl)-6-hydroxybenzo[b]thiophen-3-yl)oxy)phenyl)-acrylic acid], the “% ERα remaining” value is listed as 22%. It took 1 nM to reach half-maximal inhibition under setting [1] (IC50).

For `O=C(O)/C=C/c1ccc(Oc2c(-c3ccccc3[N+](=O)[O-])sc3cc(O)ccc23)cc1` [Example 21, (E)-3-(4-((6-hydroxy-2-(2-nitrophenyl)-benzo[b]thiophen-3-yl)oxy)phenyl)-acrylic acid], the “% ERα remaining” value came out at 22%. Besides, the IC50 under setting [1] came out at 15 nM.

As for `CC(C)(C)c1ccc(-c2sc3cc(O)ccc3c2Oc2ccc(/C=C/C(=O)O)cc2)cc1` [Example 22, (E)-3-(4-((2-(4-(tert-butyl)phenyl)-6-hydroxybenzo[b]thiophen-3-yl)oxy)phenyl)-acrylic acid], the “% ERα remaining” value came to 18%. Under setting [1], this compound registered an IC50 of 32 nM.

Take `Cc1cc(C)cc(-c2sc3cc(O)ccc3c2Oc2ccc(/C=C/C(=O)O)cc2)c1` [Example 23, (E)-3-(4-((2-(3,5-dimethylphenyl)-6-hydroxybenzo[b]thiophen-3-yl)oxy)phenyl)-acrylic acid]: the “% ERα remaining” value worked out at 22%. The same compound displayed a concentration for half-maximal inhibition (IC50) under setting [1] of 30 nM.

With `C[C@H](O)c1ccccc1-c1sc2cc(O)ccc2c1Oc1ccc(/C=C/C(=O)O)cc1` [Example 25, (S,E)-3-(4-((6-hydroxy-2-(2-(1-hydroxyethyl)phenyl)benzo[b]thiophen-3-yl)oxy)phenyl)acrylic acid], the “% ERα remaining” value was determined as 22%. Under setting [1], this compound returned an IC50 of 6 nM.

As to `COc1ccc(-c2sc3cc(O)ccc3c2Oc2ccc(/C=C/C(=O)O)cc2)cc1` [Example 26, (E)-3-(4-((6-hydroxy-2-(4-methoxyphenyl)benzo[b]thiophen-3-yl)oxy)phenyl)acrylic acid], the “% ERα remaining” value was 18%. 21 nM corresponded to half-maximal inhibition under setting [1] (IC50).

As to `O=C(O)/C=C/c1ccc(Oc2c(-c3ccc(C(F)F)cc3)sc3cc(O)ccc23)cc1` [Example 27, (E)-3-(4-((2-(4-(difluoromethyl)phenyl)-6-hydroxybenzo[b]thiophen-3-yl)oxy)phenyl)acrylic acid], the “% ERα remaining” value came out at 21%. Moreover, the IC50 under setting [1] was found to be 85 nM.

In the case of `C/C(=C\c1ccc(Oc2c(-c3ccc(O)cc3)sc3cc(O)ccc23)cc1)C(=O)O` [Example 28, (E)-3-(4-((6-hydroxy-2-(4-hydroxyphenyl)-benzo[b]thiophen-3-yl)oxy)phenyl)-2-methylacrylic acid], the “% ERα remaining” value was 33%.

With `O=C(O)/C=C/c1ccc(Oc2c(-c3ccc(O)cc3)sc3cc(O)ccc23)cn1` [Example 29, (E)-3-(5-((6-hydroxy-2-(4-hydroxyphenyl)benzo[b]thiophen-3-yl)oxy)pyridin-2-yl)acrylic acid], the “% ERα remaining” value came to 26%.

Take `CN(c1ccc(/C=C/C(=O)O)cc1)c1c(-c2ccc(O)cc2)sc2cc(O)ccc12` [Example 30, (E)-3-(4-((6-hydroxy-2-(4-hydroxyphenyl)benzo[b]thiophen-3-yl)(methyl)amino)phenyl)acrylic acid]: the “% ERα remaining” value came to 30%.

Turning to `O=C(/C=C/c1ccc(Oc2c(-c3ccc(O)cc3)sc3cc(O)ccc23)cc1)NCCC(F)(F)F` [Example 31, (E)-3-(4-((6-hydroxy-2-(4-hydroxyphenyl)benzo[b]thiophen-3-yl)oxy)phenyl)-N-(3,3,3-trifluoropropyl)acrylamide], the “% ERα remaining” value is given as 45%. Under setting [1], this compound gave an IC50 of 1 nM.

Regarding `Cc1cc(F)ccc1-c1sc2cc(O)ccc2c1Oc1ccc(/C=C/C(=O)NO)cc1` [Example 32, (E)-3-(4-((2-(4-fluoro-2-methylphenyl)-6-hydroxybenzo [b]thiophen-3-yl)oxy)phenyl)-N-hydroxyacrylamide], the “% ERα remaining” value amounted to 25%. Moreover, the DC50 (inflection point of the degradation in response to ligand concentration, read-out: ERα IC50) came out at 17 nM.

Turning to `O=C(/C=C/c1ccc(Oc2c(-c3ccc(F)cc3)sc3cc(O)ccc23)cc1)NCCC(F)(F)F` [Example 33, (E)-3-(4-((2-(4-fluorophenyl)-6-hydroxybenzo[b]thiophen-3-yl)oxy)phenyl)-N-(3,3,3-trifluoropropyl)-acrylamide], the “% ERα remaining” value was 32%. Besides, half-maximal inhibition under setting [1] (IC50) was put at 10 nM.

In the case of `CCOC(=O)/C=C/c1ccc(Oc2c(-c3ccc(O)cc3)sc3cc(O)ccc23)cc1C` [Example 34, (E)-ethyl 3-(4-((6-hydroxy-2-(4-hydroxyphenyl)benzo[b]thiophen-3-yl)oxy)-2-methylphenyl)acrylate], the “% ERα remaining” value is listed as 42%. The IC50 under setting [1] came to 112 nM.

`CCOC(=O)/C=C/c1ccc(Oc2c(-c3ccc(O)cc3)sc3cc(O)ccc23)c(C)c1` [Example 35, (E)-ethyl 3-(4-((6-hydroxy-2-(4-hydroxyphenyl)benzo[b]thiophen-3-yl)oxy)-3-methylphenyl)acrylate]: the “% ERα remaining” value is reported as 33%.

As for `COC(=O)/C=C/c1ccc(Oc2c(-c3ccc(F)cc3)sc3cc(O)ccc23)cc1` [Example 36, (E)-methyl 3-(4-((2-(4-fluorophenyl)-6-hydroxybenzo[b]thiophen-3-yl)oxy)phenyl)-acrylate], the “% ERα remaining” value was 28%.

As for `COC(=O)/C=C/c1ccc(Oc2c(-c3ccc(O)cc3)sc3c(F)c(O)c(F)cc23)cc1` [Example 37, (E)-methyl 3-(4-((5,7-difluoro-6-hydroxy-2-(4-hydroxyphenyl)-benzo[b]thiophen-3-yl)oxy)phenyl)acrylate], the “% ERα remaining” value is recorded as 38%.

For `O=C(O)/C=C/c1ccc(Oc2c(-c3ccc(O)cc3)sc3c(F)c(O)c(F)cc23)cc1` [Example 38, (E)-3-(4-((5,7-difluoro-6-hydroxy-2-(4-hydroxyphenyl)benzo[b]thiophen-3-yl)oxy)phenyl)acrylic acid], the “% ERα remaining” value worked out at 25%. Half-maximal inhibition under setting [1] (IC50) required 22 nM.

In the case of `O=C(O)/C=C/c1ccc(Oc2c(-c3ccc(O)cc3)sc3c(F)c(O)ccc23)cc1` [Example 39, (E)-3-(4-((7-fluoro-6-hydroxy-2-(4-hydroxyphenyl)benzo[b]thiophen-3-yl)oxy)phenyl)acrylic acid], the “% ERα remaining” value worked out at 24%. The IC50 under setting [1] was found to be 70 nM.

In the case of `O=C(O)/C=C/c1ccc(Oc2c(-c3ccc(O)c(F)c3)sc3cc(O)ccc23)cc1` [Example 40, (E)-3-(4-((2-(3-fluoro-4-hydroxyphenyl)-6-hydroxybenzo[b]thiophen-3-yl)oxy)phenyl)acrylic acid], the “% ERα remaining” value is listed as 23%. For the same compound, under setting [1], inhibition was half-maximal at 22 nM (IC50).
